Target: T1, CFTR (Homo sapiens, UniProt P13569, DEL508-508)
T1 construct: Primary CF airway epithelial cells were obtained from the UNC Cystic Fibrosis Tissue Procurement and Cell Culture Core; host or cells: primary CF airway epithelial cells, differentiated at the air-liquid interface
Assay: Equivalent current assay in primary CF airway epithelial cells (NAUC, combination with 1st site corrector FDL169 or VX-809)
Assay type: cell-based
Conditions: 37° C., 24 h

[1] = test compound 1 μM in combination with 1st site corrector FDL169 (3 μM)
[2] = test compound 3 μM in combination with 1st site corrector FDL169 (3 μM)
[3] = test compound 10 μM in combination with 1st site corrector FDL169 (3 μM)
[4] = test compound 1 μM in combination with 1st site corrector VX-809 (3 μM)
[5] = test compound 3 μM in combination with 1st site corrector VX-809 (3 μM)
[6] = test compound 10 μM in combination with 1st site corrector VX-809 (3 μM)

T1 sequence (P13569 with tags, fused parts or gaps DEL508-508): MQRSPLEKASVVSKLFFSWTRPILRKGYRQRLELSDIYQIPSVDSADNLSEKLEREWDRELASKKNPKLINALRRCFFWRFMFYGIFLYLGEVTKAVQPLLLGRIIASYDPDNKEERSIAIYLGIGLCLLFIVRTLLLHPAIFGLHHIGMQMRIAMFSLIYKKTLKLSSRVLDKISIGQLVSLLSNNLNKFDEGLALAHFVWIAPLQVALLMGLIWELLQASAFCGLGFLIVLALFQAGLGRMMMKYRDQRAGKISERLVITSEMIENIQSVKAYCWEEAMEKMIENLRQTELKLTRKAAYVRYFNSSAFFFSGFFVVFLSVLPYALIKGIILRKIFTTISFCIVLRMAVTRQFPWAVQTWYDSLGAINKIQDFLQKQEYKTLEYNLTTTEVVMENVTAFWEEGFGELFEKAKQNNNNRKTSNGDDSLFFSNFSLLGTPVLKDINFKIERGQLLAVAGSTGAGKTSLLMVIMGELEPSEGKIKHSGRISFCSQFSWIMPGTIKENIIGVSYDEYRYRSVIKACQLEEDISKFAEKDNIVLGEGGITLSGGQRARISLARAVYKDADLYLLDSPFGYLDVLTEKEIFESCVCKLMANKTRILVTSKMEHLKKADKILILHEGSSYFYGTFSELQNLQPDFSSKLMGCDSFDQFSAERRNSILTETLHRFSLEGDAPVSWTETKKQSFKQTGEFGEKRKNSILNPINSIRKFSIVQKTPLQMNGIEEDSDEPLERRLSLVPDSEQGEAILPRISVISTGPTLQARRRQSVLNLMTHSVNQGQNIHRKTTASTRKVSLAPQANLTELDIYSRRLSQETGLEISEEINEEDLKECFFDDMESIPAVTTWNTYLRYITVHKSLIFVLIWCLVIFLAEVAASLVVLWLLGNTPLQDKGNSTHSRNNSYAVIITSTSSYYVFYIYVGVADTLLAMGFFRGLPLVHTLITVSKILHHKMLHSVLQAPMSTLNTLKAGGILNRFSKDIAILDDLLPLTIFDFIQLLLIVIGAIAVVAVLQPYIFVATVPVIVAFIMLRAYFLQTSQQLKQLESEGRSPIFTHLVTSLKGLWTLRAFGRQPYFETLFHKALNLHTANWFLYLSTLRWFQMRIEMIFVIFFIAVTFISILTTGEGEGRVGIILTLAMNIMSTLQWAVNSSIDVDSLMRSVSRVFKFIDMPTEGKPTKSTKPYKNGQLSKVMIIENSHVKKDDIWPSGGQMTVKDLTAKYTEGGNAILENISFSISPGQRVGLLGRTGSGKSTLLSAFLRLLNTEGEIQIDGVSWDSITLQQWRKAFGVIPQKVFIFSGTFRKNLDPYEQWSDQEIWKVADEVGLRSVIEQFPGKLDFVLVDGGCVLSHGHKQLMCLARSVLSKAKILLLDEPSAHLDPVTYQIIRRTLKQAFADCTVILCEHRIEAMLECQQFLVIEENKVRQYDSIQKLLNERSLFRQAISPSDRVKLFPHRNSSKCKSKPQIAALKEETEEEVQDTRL

CN1C(=O)[C@]2(c3cc(Cl)cc(Cl)c31)[C@@H](C(=O)O)[C@@H](C(=O)N(CC1CC1)c1cc(Cl)cc(Cl)c1)[C@H]1CC(F)(F)CN12 [Example 202]
Nauc @ 1 μM [1]: ++ (NAUC “++” refers to an observed NAUC 170-140% of positive control) | Nauc @ 3 μM [2]: ++ (NAUC “++” refers to an observed NAUC 170-140% of positive control) | Nauc @ 10 μM [3]: + (NAUC “+” refers to an observed NAUC <140% of positive control)

O=C(Nc1n[nH]c2ccc(F)cc12)[C@H]1[C@H]2CC(F)(F)CN2[C@]2(C(=O)Nc3c(Cl)cc(Cl)cc32)[C@H]1C(=O)O [Example 130]
Nauc @ 1 μM [4]: + (NAUC “+” refers to an observed NAUC <140% of positive control) | Nauc @ 3 μM [5]: + (NAUC “+” refers to an observed NAUC <140% of positive control)

O=C(O)[C@H]1[C@@H](C(=O)N(CC2CCCC2)c2cc(Cl)cc(Cl)c2)[C@H]2CCCN2C12C(=O)Nc1c(Cl)cc(Cl)cc12 (single isomer, unassigned) [Example 84b]
Nauc @ 1 μM [1]: +++ (NAUC “+++” refers to an observed NAUC>170% of positive control) | Nauc @ 3 μM [2]: + (NAUC “+” refers to an observed NAUC <140% of positive control)

O=C(O)[C@H]1[C@@H](C(=O)N(CC2CC2)c2cccc(C3(C(F)(F)F)CC3)c2)[C@H]2CC(F)(F)CN2[C@]12C(=O)Nc1c(Cl)cc(Cl)cc12 [Example 189]
Nauc @ 1 μM [1]: ++ (NAUC “++” refers to an observed NAUC 170-140% of positive control) | Nauc @ 3 μM [2]: + (NAUC “+” refers to an observed NAUC <140% of positive control)

CC(C)(C)CN(C(=O)[C@H]1[C@@H](C(=O)O)[C@]2(C(=O)Nc3c(Cl)cc(Cl)cc32)N2CC(F)(F)C[C@@H]12)c1cc(Cl)cc(Cl)c1 [Example 111, (1′S,2′R,3S,7a′S)-5,7-dichloro-1-((3,5-dichlorophenyl)(neopentyl)carbamoyl)-6′,6′-difluoro-2-oxo-1′,2′,5′,6′,7′,7a′-hexahydrospiro[indoline-3,3′-pyrrolizine]-2′-carboxylic acid]
Nauc @ 1 μM [1]: + (NAUC “+” refers to an observed NAUC <140% of positive control) | Nauc @ 3 μM [2]: ++ (NAUC “++” refers to an observed NAUC 170-140% of positive control)

O=C(Nc1ccccc1O)C1C2CC(F)(F)CN2C2(C(=O)Nc3c(Cl)cc(Cl)cc32)C1C(=O)O (stereo not shown) [Example 78.a]
Nauc @ 10 μM [6]: + (NAUC “+” refers to an observed NAUC <140% of positive control)

C[C@]1(O)CC2C(C(=O)Nc3cc(Cl)cc(Cl)c3)C(C(=O)O)C3(C(=O)Nc4c(Cl)cc(Cl)cc43)N2C1 (stereo partly shown) [Example 3]
Nauc @ 3 μM [5]: +++ (NAUC “+++” refers to an observed NAUC>170% of positive control) | Nauc @ 10 μM [6]: +++ (NAUC “+++” refers to an observed NAUC>170% of positive control)

O=C(Nc1cc(Cl)cc(Cl)c1)C1C(C(F)(F)c2cccc(Cl)c2)NC2(C(=O)Nc3c(Cl)cc(Cl)cc32)C1C(=O)O (stereo not shown) [Example 68.a]
Nauc @ 10 μM [6]: + (NAUC “+” refers to an observed NAUC <140% of positive control)

COc1ccc2c(c1)C1(C(=O)N2)[C@@H](C(=O)O)[C@@H](C(=O)N(C)c2cc(Cl)cc(Cl)c2)[C@H]2CC(F)(F)CN21 (stereo partly shown) [Example 103]
Nauc @ 1 μM [1]: + (NAUC “+” refers to an observed NAUC <140% of positive control) | Nauc @ 3 μM [2]: + (NAUC “+” refers to an observed NAUC <140% of positive control) | Nauc @ 10 μM [3]: + (NAUC “+” refers to an observed NAUC <140% of positive control)

O=C(Nc1cc(Cl)cc(Cl)c1)C1C(C(F)(F)F)NC2(C(=O)Nc3c(Cl)cc(Cl)cc32)C1C(=O)O (stereo not shown) [Example 40]
Nauc @ 3 μM [5]: +++ (NAUC “+++” refers to an observed NAUC>170% of positive control) | Nauc @ 10 μM [6]: +++ (NAUC “+++” refers to an observed NAUC>170% of positive control)

CN(O)C(=O)C1C(C(=O)Nc2cc(Cl)cc(Cl)c2)C2CC(F)(F)CN2C12C(=O)Nc1c(Cl)cc(Cl)cc12 (single isomer, unassigned) [Example 225a, 5,7-dichloro-N1′-(3,5-dichlorophenyl)-6′,6′-difluoro-N2′-hydroxy-N2′-methyl-2-oxo-1′,2′,5′,6′,7′,7a′-hexahydrospiro[indoline-3,3′-pyrrolizine]-1′,2′-dicarboxamide]
Nauc @ 1 μM [4]: + (NAUC “+” refers to an observed NAUC <140% of positive control) | Nauc @ 3 μM [5]: + (NAUC “+” refers to an observed NAUC <140% of positive control) | Nauc @ 10 μM [6]: +++ (NAUC “+++” refers to an observed NAUC>170% of positive control)

O=C(Nc1cc(Cl)cc(Cl)c1)C1C(C(=O)O)C(c2cc(Cl)cc(Cl)c2)N2CCCC12 (stereo not shown) [Example 27]
Nauc @ 3 μM [5]: ++ (NAUC “++” refers to an observed NAUC 170-140% of positive control) | Nauc @ 10 μM [6]: ++ (NAUC “++” refers to an observed NAUC 170-140% of positive control)

CC(=O)OCOC(=O)[C@@H]1[C@@H](C(=O)N(C)c2cc(Cl)cc(Cl)c2)[C@H]2CC(F)(F)CN2[C@]12C(=O)Nc1c(Cl)cc(Cl)cc12 (single isomer, unassigned) [Example 256a]
Nauc @ 10 μM [6]: +++ (NAUC “+++” refers to an observed NAUC>170% of positive control)

CC(C)(C)C(C)(C)CN(C(=O)[C@H]1[C@H]2C[C@](C)(O)CN2[C@]2(C(=O)Nc3c(Cl)cc(Cl)cc32)[C@H]1C(=O)O)c1cc(Cl)cc(Cl)c1 [Example 96]
Nauc @ 1 μM [1]: +++ (NAUC “+++” refers to an observed NAUC>170% of positive control) | Nauc @ 3 μM [2]: +++ (NAUC “+++” refers to an observed NAUC>170% of positive control) | Nauc @ 10 μM [3]: + (NAUC “+” refers to an observed NAUC <140% of positive control)

C[C@]1(O)CC2C(C(=O)Nc3cc(C(F)(F)F)cc(C(F)(F)F)n3)C(C(=O)O)C3(C(=O)Nc4c(Cl)cc(Cl)cc43)N2C1 (stereo partly shown) [Example 5]
Nauc @ 3 μM [5]: +++ (NAUC “+++” refers to an observed NAUC>170% of positive control) | Nauc @ 10 μM [6]: +++ (NAUC “+++” refers to an observed NAUC>170% of positive control)

O=C(Nc1ccc2ccccc2n1)[C@H]1[C@H]2CC(F)(F)CN2[C@]2(C(=O)Nc3c(Cl)cc(Cl)cc32)[C@H]1C(=O)O [Example 113]
Nauc @ 1 μM [4]: + (NAUC “+” refers to an observed NAUC <140% of positive control) | Nauc @ 3 μM [5]: + (NAUC “+” refers to an observed NAUC <140% of positive control) | Nauc @ 10 μM [6]: + (NAUC “+” refers to an observed NAUC <140% of positive control)

CC(C)(C)CN(C(=O)[C@H]1[C@H]2CC3(CC3)CN2[C@]2(C(=O)Nc3c(Cl)cc(Cl)cc32)[C@H]1C(=O)O)c1cc(Cl)cc(Cl)c1 (single isomer, unassigned) [Example 275.7a]
Nauc @ 1 μM [1]: +++ (NAUC “+++” refers to an observed NAUC>170% of positive control) | Nauc @ 3 μM [2]: +++ (NAUC “+++” refers to an observed NAUC>170% of positive control) | Nauc @ 10 μM [3]: +++ (NAUC “+++” refers to an observed NAUC>170% of positive control)

CC(=O)NNC(=O)[C@H]1[C@@H](C(=O)Nc2cc(Cl)cc(Cl)c2)[C@H]2CCCN2[C@]12C(=O)Nc1c(Cl)cc(Cl)cc12 (single isomer, unassigned) [Example 242, (1′R,2′S,7a′R)-2′-(2-acetylhydrazine-1-carbonyl)-5,7-dichloro-N-(3,5-dichlorophenyl)-2-oxo-1′,2′,5′,6′,7′,7a′-hexahydrospiro[indoline-3,3′-pyrrolizine]-1-carboxamide]
Nauc @ 1 μM [4]: + (NAUC “+” refers to an observed NAUC <140% of positive control) | Nauc @ 3 μM [5]: + (NAUC “+” refers to an observed NAUC <140% of positive control) | Nauc @ 10 μM [6]: + (NAUC “+” refers to an observed NAUC <140% of positive control)

CN(C(=O)[C@H]1[C@H]2CC(F)(F)CN2C2(C(=O)Nc3c(Cl)cc(Cl)cc32)[C@H]1C(=O)NS(=O)(=O)c1ccccc1)c1cc(Cl)cc(Cl)c1 (mixture of isomers) [Example 230, rel-(1′R,2′S,3R,7a′R)-5,7-dichloro-N1′-(3,5-dichlorophenyl)-6′,6′-difluoro-N1′-methyl-2-oxo-N2′-(phenylsulfonyl)-1′,2′,5′,6′,7′,7a′-hexahydrospiro[indoline-3,3′-pyrrolizine]-1′,2′-dicarboxamide]
Nauc @ 10 μM [6]: + (NAUC “+” refers to an observed NAUC <140% of positive control)

Cc1oc(=O)oc1COC(=O)[C@H]1[C@@H](C(=O)N(C)c2cc(Cl)cc(Cl)c2)[C@H]2CC(F)(F)CN2C12C(=O)N(Cc1oc(=O)oc1C)c1c(Cl)cc(Cl)cc12 (mixture of isomers) [Example 250.3b, rac-(5-methyl-2-oxo-1,3-dioxo1-4-yl)methyl (1′R,2′S,3R,7a′R)-5,7-dichloro-1′-((3,5-dichlorophenyl)(methyl)carbamoyl)-6′,6′-difluoro-1-45-methyl-2-oxo-1,3-dioxol-4-yl)methyl)-2-oxo-1′,2′,5′,6′,7′,7a′-hexahydrospiro[indoline-3,3′-pyrrolizine]-2′-carboxylate]
Nauc @ 10 μM [6]: + (NAUC “+” refers to an observed NAUC <140% of positive control)

O=C(Nc1cccc2c1CCCC2)[C@H]1[C@H]2CC(F)(F)CN2[C@]2(C(=O)Nc3c(Cl)cc(Cl)cc32)[C@H]1C(=O)O [Example 131]
Nauc @ 1 μM [4]: +++ (NAUC “+++” refers to an observed NAUC>170% of positive control) | Nauc @ 3 μM [5]: +++ (NAUC “+++” refers to an observed NAUC>170% of positive control)

O=C(Nc1cc(C(F)(F)F)cc(C(F)(F)F)n1)C1C2C[C@@](O)(C(F)(F)F)CN2C2(C(=O)Nc3c(Cl)cc(Cl)cc32)C1C(=O)O (stereo partly shown) [Example 55]
Nauc @ 3 μM [5]: ++ (NAUC “++” refers to an observed NAUC 170-140% of positive control) | Nauc @ 10 μM [6]: + (NAUC “+” refers to an observed NAUC <140% of positive control)

CN(C(=O)[C@H]1[C@H]2CC(F)(F)CN2[C@]2(C(=O)Nc3c(Cl)cc(Cl)cc32)[C@H]1C(=O)O)c1cc(Cl)cc(Cl)c1F (single isomer, unassigned) [Example 265b]
Nauc @ 1 μM [4]: + (NAUC “+” refers to an observed NAUC <140% of positive control) | Nauc @ 3 μM [5]: + (NAUC “+” refers to an observed NAUC <140% of positive control) | Nauc @ 10 μM [6]: + (NAUC “+” refers to an observed NAUC <140% of positive control)

From patent US20230055237A1, “COMPOUNDS AND METHODS FOR THE TREATMENT OF CYSTIC FIBROSIS” (Flatley Discovery Lab, LLC, priority 2019, published 2023)
